Measurements taken from PubChem BioAssay (NCI).
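Values below derive from 48-hour exposures of cells grown in 96-well plates, with endpoints linearly interpolated between the two concentrations bracketing the appropriate inhibition level. Here, GI50 denotes the concentration required for 50% inhibition of growth. TGI: total growth inhibition.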

Key:
Assay in all cases: DTP human tumour cell line panel, 48 h
[1] = system: SF-268 CNS
[2] = system: NCI-H226 lung
[3] = system: HOP-92 NSCLC
[4] = system: MCF7 breast
[5] = system: 786-0 renal
[6] = system: UACC-62 melanoma
[7] = system: BT-549 breast
[8] = system: CAKI-1 renal
[9] = system: LOX IMVI melanoma
[10] = system: TK-10 renal
[11] = system: SK-MEL-28 melanoma
[12] = system: SR leukemia
[13] = system: RPMI-8226 leukemia
[14] = system: U251 CNS
[15] = system: T-47D breast
[16] = system: SW-620 colon
[17] = system: OVCAR-4 ovarian
[18] = system: HT29 colon
[19] = system: A549 NSCLC
[20] = system: HCT-15 colon
[21] = system: SN12C renal
[22] = system: NCI-H23 lung
[23] = system: HOP-62 NSCLC
[24] = system: PC-3 prostate
[25] = system: M14 melanoma
[26] = system: IGROV1 ovarian
[27] = system: DU-145 prostate
[28] = system: CCRF-CEM leukemia
[29] = system: MDA-MB-435
[30] = system: RXF 393 renal
[31] = system: SK-OV-3 ovarian
[32] = system: OVCAR-5 ovarian
[33] = system: SNB-75 CNS
[34] = system: NCI-H522 lung
[35] = system: K-562 leukemia
[36] = system: NCI-H460 lung
[37] = system: NCI/ADR-RES ovarian
[38] = system: UACC-257 melanoma
[39] = system: SF-539 CNS
[40] = system: OVCAR-8 ovarian
[41] = system: A498 renal
[42] = system: EKVX NSCLC
[43] = system: KM12 colon
[44] = system: MOLT-4 leukemia
[45] = system: HS 578T breast
[46] = system: MDA-MB-231 breast
[47] = system: HCT-116 colon
[48] = system: MALME-3M melanoma
[49] = system: SF-295 CNS
[50] = system: SNB-19 CNS
[51] = system: UO-31 renal
[52] = system: ACHN renal
[53] = system: SK-MEL-2 melanoma
[54] = system: COLO 205 colon
[55] = system: SK-MEL-5 melanoma
[56] = system: OVCAR-3 ovarian
[57] = system: HCC-2998 colon
[58] = system: HL-60(TB) leukemia

**Q.** Which results are given for `Cc1ccncc1N1CCN(c2ccnc(Cl)c2)C1=O`?
**A.** GI50 [1]: > 100 µM; TGI [1]: > 100 µM; GI50 [2]: > 100 µM; TGI [2]: > 100 µM; GI50 [3]: > 100 µM; TGI [3]: > 100 µM; GI50 [4]: > 100 µM; TGI [4]: > 100 µM; GI50 [5]: > 100 µM; TGI [5]: > 100 µM; GI50 [6]: > 100 µM; TGI [6]: > 100 µM; GI50 [7]: > 100 µM; TGI [7]: > 100 µM; GI50 [8]: > 100 µM; TGI [8]: > 100 µM; GI50 [9]: > 100 µM; TGI [9]: > 100 µM; GI50 [10]: > 100 µM; TGI [10]: > 100 µM; GI50 [11]: > 100 µM; TGI [11]: > 100 µM; GI50 [12]: > 100 µM; TGI [12]: > 100 µM; GI50 [13]: > 100 µM; TGI [13]: > 100 µM; GI50 [14]: > 100 µM; TGI [14]: > 100 µM; GI50 [15]: > 100 µM; TGI [15]: > 100 µM; GI50 [16]: > 100 µM; TGI [16]: > 100 µM; GI50 [17]: > 100 µM; TGI [17]: > 100 µM; GI50 [18]: > 100 µM; TGI [18]: > 100 µM; GI50 [19]: > 100 µM; TGI [19]: > 100 µM; GI50 [20]: > 100 µM; TGI [20]: > 100 µM; GI50 [21]: > 100 µM; TGI [21]: > 100 µM; GI50 [22]: > 100 µM; TGI [22]: > 100 µM; GI50 [23]: > 100 µM; TGI [23]: > 100 µM; GI50 [24]: > 100 µM; TGI [24]: > 100 µM; GI50 [25]: > 100 µM; TGI [25]: > 100 µM; GI50 [26]: > 100 µM; TGI [26]: > 100 µM; GI50 [27]: > 100 µM; TGI [27]: > 100 µM; GI50 [28]: > 100 µM; TGI [28]: > 100 µM; GI50 [29]: > 100 µM; TGI [29]: > 100 µM; GI50 [30]: > 100 µM; TGI [30]: > 100 µM; GI50 [31]: > 100 µM; TGI [31]: > 100 µM; GI50 [32]: > 100 µM; TGI [32]: > 100 µM; GI50 [33]: > 100 µM; TGI [33]: > 100 µM; GI50 [34]: > 100 µM; TGI [34]: > 100 µM; GI50 [35]: > 100 µM; TGI [35]: > 100 µM; GI50 [36]: > 100 µM; TGI [36]: > 100 µM; GI50 [37]: > 100 µM; TGI [37]: > 100 µM; GI50 [38]: > 100 µM; TGI [38]: > 100 µM; GI50 [39]: > 100 µM; TGI [39]: > 100 µM; GI50 [40]: > 100 µM; TGI [40]: > 100 µM; GI50 [41]: > 100 µM; TGI [41]: > 100 µM; GI50 [42]: > 100 µM; TGI [42]: > 100 µM; GI50 [43]: > 100 µM; TGI [43]: > 100 µM; GI50 [44]: > 100 µM; TGI [44]: > 100 µM; GI50 [45]: > 100 µM; TGI [45]: > 100 µM; GI50 [46]: > 100 µM; TGI [46]: > 100 µM; GI50 [47]: > 100 µM; TGI [47]: > 100 µM; GI50 [48]: > 100 µM; TGI [48]: > 100 µM; GI50 [49]: > 100 µM; TGI [49]: > 100 µM; GI50 [50]: > 100 µM; TGI [50]: > 100 µM; GI50 [51]: > 100 µM; TGI [51]: > 100 µM; GI50 [52]: > 100 µM; TGI [52]: > 100 µM; GI50 [53]: > 100 µM; TGI [53]: > 100 µM; GI50 [54]: > 100 µM; TGI [54]: > 100 µM; GI50 [55]: > 100 µM; TGI [55]: > 100 µM; GI50 [56]: > 100 µM; TGI [56]: > 100 µM; GI50 [57]: > 100 µM; TGI [57]: > 100 µM; GI50 [58]: > 100 µM; TGI [58]: > 100 µM
